This assay addresses T1, ZAP-70 (Homo sapiens, UniProt P43403).
T1 construct: endogenous in cells; host or cells: cell lysate
T1 sequence (P43403 1-619): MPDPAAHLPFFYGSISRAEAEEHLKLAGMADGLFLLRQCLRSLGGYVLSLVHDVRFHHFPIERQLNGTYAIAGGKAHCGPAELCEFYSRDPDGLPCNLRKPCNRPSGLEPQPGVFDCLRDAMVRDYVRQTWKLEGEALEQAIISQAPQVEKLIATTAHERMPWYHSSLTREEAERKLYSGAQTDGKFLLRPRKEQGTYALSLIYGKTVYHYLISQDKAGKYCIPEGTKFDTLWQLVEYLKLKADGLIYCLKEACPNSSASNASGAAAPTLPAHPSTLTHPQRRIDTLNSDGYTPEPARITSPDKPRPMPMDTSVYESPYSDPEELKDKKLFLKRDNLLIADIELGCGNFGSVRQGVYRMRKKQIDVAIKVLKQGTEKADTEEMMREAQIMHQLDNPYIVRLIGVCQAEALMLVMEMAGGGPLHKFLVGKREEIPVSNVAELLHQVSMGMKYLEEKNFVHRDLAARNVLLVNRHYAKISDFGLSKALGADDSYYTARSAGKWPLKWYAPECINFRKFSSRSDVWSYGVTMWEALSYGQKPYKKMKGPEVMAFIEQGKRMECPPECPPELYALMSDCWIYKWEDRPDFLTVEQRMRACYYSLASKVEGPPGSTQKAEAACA
The assay is described as follows: ZAP-70 kinobeads assay. It counts as binding. As to conditions: cell lysate, affinity matrix with immobilized aminopyrido-pyrimidine ligand 24, dot blot detection. As to the method: The compounds of the present invention as described in the previous examples can be tested in the ZAP-70 kinobeads assay as described (EP-A 1862802 and WO-A 2007/137867). Briefly, test compounds (at various concentrations) and the affinity matrix with the immobilized aminopyrido-pyrimidine ligand 24 are added to cell lysate aliquots and allowed to bind to the proteins in the lysate sample. After the incubation time the beads with captured proteins are separated from the lysate. Bound proteins are then eluted and the presence ZAP-70 is detected and quantified using a specific antibody in a dot blot procedure and the Odyssey infrared detection system.

Bounds are passed on as bounds.

The compound `COc1cc(Nc2ncc(F)c(Nc3cccc(C)c3N(CCCC(N)=O)S(C)(=O)=O)n2)cc(OC)c1OC` [Example 25, 4-(N-(2-(5-fluoro-2-(3,4,5-trimethoxyphenylamino)pyrimidin-4-ylamino)-6-methylphenyl)methylsulfonamido)butanamide] came in with an IC50 of 1 to 10 µM.
Then `COc1cc(Nc2ncc(F)c(Nc3cccc(C)c3N(CCC(N)=O)S(C)(=O)=O)n2)cc(OC)c1OC` [Example 23, 3-(N-(2-(5-fluoro-2-(3,4,5-trimethoxyphenylamino)pyrimidin-4-ylamino)-6-methylphenyl)methylsulfonamido)propanamide], with 1 to 10 µM; and `COc1ccc(Nc2nc(Nc3cc(OC)c(OC)c(OC)c3)ncc2Cl)c(N(CCCNC(C)=O)S(C)(=O)=O)c1` [Example 29, N-(3-(N-(2-(5-chloro-2-(3,4,5-trimethoxyphenylamino)pyrimidin-4-ylamino)-5-methoxyphenyl)methylsulfonamido)propyl)acetamide], with ≤ 0.1 µM.
Then `CS(=O)(=O)N(CCN1CCOCC1)c1ccccc1Nc1nc(Nc2cccc(O)c2)ncc1F` [Example 32, N-(2-(5-fluoro-2-(3-hydroxyphenylamino)pyrimidin-4-ylamino)phenyl)-N-(2-morpholinoethyl)methanesulfonamide], with 1 to 10 µM.
Turning to `COc1cc(Nc2ncc(F)c(Nc3cccc(C)c3N(CCCC#N)S(C)(=O)=O)n2)cc(OC)c1OC` [Example 24, N-(3-cyanopropyl)-N-(2-(5-fluoro-2-(3,4,5-trimethoxyphenylamino)pyrimidin-4-ylamino)-6-methylphenyl)methanesulfonamide], the IC50 fell in the range of 1 to 10 µM.
Under `COc1ccc(Nc2nc(Nc3cc(F)c(OC)cc3OC)ncc2Cl)c(N(CCN)S(C)(=O)=O)c1` [Example 10, N-(2-aminoethyl)-N-(2-(5-chloro-2-(5-fluoro-2,4-dimethoxyphenylamino)pyrimidin-4-ylamino)-5-methoxyphenyl)methanesulfonamide] stands 0.1 to 1 µM; under `COc1cc(Nc2ncc(F)c(Nc3cccc(C)c3N(CC(N)=O)S(C)(=O)=O)n2)cc(OC)c1OC` [Example 14, 2-(N-(2-(5-fluoro-2-(3,4,5-trimethoxyphenylamino)pyrimidin-4-ylamino)-6-methylphenyl)methylsulfonamido) acetamide], 1 to 10 µM.
`COc1cc(Nc2ncc(F)c(Nc3cccc(C)c3N(CCCNC=O)S(C)(=O)=O)n2)cc(OC)c1OC` [Example 28, N-(3-(N-(2-(5-fluoro-2-(3,4,5-trimethoxyphenylamino)pyrimidin-4-ylamino)-6-methylphenyl)methylsulfonamido)propyl)formamide] had an IC50 of 0.1 to 1 µM.
Then `COc1ccc(Nc2nc(Nc3cc(OC)c(OC)c(OC)c3)ncc2Cl)c(N(C[C@H]2CCC(=O)N2)S(C)(=O)=O)c1` [Example 5, (R)—N-(2-(5-chloro-2-(3,4,5-trimethoxyphenylamino)pyrimidin-4-ylamino)-5-methoxyphenyl)-N-((5-oxopyrrolidin-2-yl)methyl)methanesulfonamide], with 1 to 10 µM.
In turn, `COc1cc(Nc2ncc(F)c(Nc3cccc(C)c3N(CCCN)S(C)(=O)=O)n2)cc(OC)c1OC` [Example 21, N-(3-aminopropyl)-N-(2-(5-fluoro-2-(3,4,5-trimethoxyphenylamino)pyrimidin-4-ylamino)-6-methylphenyl)methanesulfonamide] yielded an IC50 of 0.1 to 1 µM.
Under `COc1ccc(Nc2nc(Nc3cc(OC)c(OC)c(OC)c3)ncc2Cl)c(N(CCNC(C)=O)S(C)(=O)=O)c1` [Example 30] stands ≤ 0.1 µM; under `COc1ccc(Nc2nc(Nc3ccnn3C)ncc2Cl)c(N(C[C@H]2CCC(=O)N2)S(C)(=O)=O)c1` [Example 31], 1 to 10 µM.
Then `COC(=O)CCN(c1c(C)cccc1Nc1nc(Nc2cc(OC)c(OC)c(OC)c2)ncc1F)S(C)(=O)=O` [Example 22, Methyl 3-(N-(2-(5-fluoro-2-(3,4,5-trimethoxyphenylamino)pyrimidin-4-ylamino)-6-methylphenyl)methylsulfonamido)propanoate], with 1 to 10 µM; and `COc1cc(Nc2ncc(F)c(Nc3cccc(C)c3N(CCCNC(C)=O)S(C)(=O)=O)n2)cc(OC)c1OC` [Example 27, N-(3-(N-(2-(5-fluoro-2-(3,4,5-trimethoxyphenylamino)pyrimidin-4-ylamino)-6-methylphenyl)methylsulfonamido)propyl)acetamide], with 0.1 to 1 µM; and `COC(=O)CN(c1c(C)cccc1Nc1nc(Nc2cc(OC)c(OC)c(OC)c2)ncc1F)S(C)(=O)=O` [Example 18, Methyl 2-(N-(2-(5-fluoro-2-(3,4,5-trimethoxyphenylamino)pyrimidin-4-ylamino)-6-methylphenyl)methylsulfonamido)acetate], with 1 to 10 µM.
Then `COc1ccc(Nc2nc(Nc3cc(OC)c(OC)c(OC)c3)ncc2Cl)c(N(CCN)S(C)(=O)=O)c1` [Example 7, N-(2-aminoethyl)-N-(2-(5-chloro-2-(3,4,5-trimethoxyphenylamino)pyrimidin-4-ylamino)-5-methoxyphenyl)methanesulfonamide], with ≤ 0.1 µM; and `COc1cc(Nc2ncc(F)c(Nc3cccc(C)c3N(CCC#N)S(C)(=O)=O)n2)cc(OC)c1OC` [Example 16, N-(2-cyanoethyl)-N-(2-(5-fluoro-2-(3,4,5-trimethoxyphenylamino)pyrimidin-4-ylamino)-6-methylphenyl)methanesulfonamide], with 0.1 to 1 µM; and `COc1cc(Nc2ncc(F)c(Nc3ccccc3N(CCN3CCCC3)S(C)(=O)=O)n2)cc(OC)c1OC` [Example 33, N-(2-(5-fluoro-2-(3,4,5-trimethoxyphenylamino)pyrimidin-4-ylamino)phenyl)-N-(2-(pyrrolidin-1-yl)ethyl)methanesulfonamide], with 1 to 10 µM.
`COc1ccc(Nc2nc(Nc3cc(OC)c(OC)cc3C)ncc2Cl)c(N(CCN)S(C)(=O)=O)c1` [Example 9, N-(2-aminoethyl)-N-(2-(5-chloro-2-(4,5-dimethoxy-2-methylphenylamino)pyrimidin-4-ylamino)-5-methoxyphenyl)methanesulfonamide]: the IC50 is ≤ 0.1 µM.
On to `COc1ccc(Nc2nc(Nc3cc(OC)c(OC)c(OC)c3)ncc2Cl)c(N(Cc2cnc[nH]2)S(C)(=O)=O)c1` [Example 1, N-((1H-imidazol-5-yl)methyl)-N-(2-(5-chloro-2-(3,4,5-trimethoxyphenylamino)pyrimidin-4-ylamino)-5-methoxyphenyl)methanesulfonamide], for which the IC50 was 0.1 to 1 µM.

The term IC50 denotes the point on the concentration scale where inhibition reaches its midpoint.

(Values after US20120165332A1, “SULFONAMIDES AND SULFAMIDES AS ZAP-70 INHIBITORS” (Cellzome Limited, priority 2009, published 2012).)
